What all share (format): physicochemical
Data set [1] in a line: Determination of apparent density and compacted density (Stampf STAV 2003 volumeter). The conditions noted are these: for Compacted density: weight/final volume after 2500 strokes; for Apparent density: weight/initial volume. The method, then:
The determination of apparent and compacted densities was carried out with a Stampf STAV 2003 volumeter equipped with a 100-mL glass volumetric flask.
• (i) The flask was filled with a volume between 50 and 100 mL of test sample. • (ii) The volume occupied before the test (mL) was recorded. • (iii) 2500 strokes were performed with the volumeter. • (iv) The volume occupied after the test (mL) was recorded. • (v) The amount of analyzed sample (g) was weighed.
• (i) Apparent density (g/mL)=weight/initial volume • (ii) Compacted density (g/mL)=weight/final volume

Data set [2] in a line: DTA / thermogravimetric analysis (weight loss). As to the method:
The necessary amounts were carefully weighed for completing ¾ parts of the 70-μl Al2O3 crucible provided with a perforated lid that was hermetically sealed. Then, the crucible was placed into the furnace and the experiment started. The samples were heated from […] at a rate of 5° C./min under a N2 stream, the flow rate being 80 mL/min. Mass loss rate was calculated in relation to baseline by horizontal tangent plot. […] The start of endothermic peak temperature occurred at 437.6° K, but the first recorded weight loss began at 449° K from DTA analysis. Polymorph II placed in a furnace at 423° K started decomposition after 2 hours.

Data set [3] in a line: Stability of polymorph II (humidity, temperature, polymorphic transition). The method, then: The start of endothermic peak temperature occurred at 437.6° K, but the first recorded weight loss began at 449° K from DTA analysis. Polymorph II placed in a furnace at 423° K started decomposition after 2 hours.

Consider `Clc1ccc([C@H](Cn2ccnc2)OCc2csc3c(Cl)cccc23)c(Cl)c1` [Polymorph I, arasertaconazole mononitrate], for which, in data set [1] (listed as Polymorph 1), the Compacted density came out at 1.08 g/mL and the Apparent density stood at 0.78 g/mL. In data set [1] (listed as polymorph I), the Compacted density stood at 1.08 g/mL and the Apparent density was determined as 0.78 g/mL.

For `Clc1ccc([C@H](Cn2ccnc2)OCc2csc3c(Cl)cccc23)c(Cl)c1` [Polymorph II, arasertaconazole mononitrate], the “Temperature at which first recorded weight loss began” value in data set [2] is 449 ° K. For the same molecule, the Compacted density in data set [1] and in data set [1] (listed as polymorph II) was 0.53 g/mL in each case. In addition, the Apparent density in data set [1] and in data set [1] (listed as polymorph II) was 0.39 g/mL throughout. The “Stability in 1-month test” value in data set [3] (1-month test at ambient temperature or humidity) is on record as “remained stable”. The “Stability after 1 day” value in data set [3] (1 day at 25° C./80 RH) is “remained stable”. Further, the “Transition from II to I” value in data set [3] (during 1-month test) is on record as “No transition from II to I was observed”. The “Stability at high temperature compared with polymorph I” value in data set [3] (high temperatures (higher than 80° C.)) is recorded as “more stable at high temperature”. Besides, the Stability against humidity result in data set [3] (humidity) is “stable”. The “Time to start of decomposition” value in data set [3] (placed in a furnace at 423° K) was 2 h. In data set [3] (temperature below 423° K), the Stability at temperature entry is “stable”.

(Values after patent US20110251251A1, “POLYMORPH II OF AN ANTIFUNGAL COMPOUND” (FERRER INTERNACIONAL, S.A, priority 2008, published 2011).)
